Results published in ChEMBL document CHEMBL5154911, “Palmatine Derivatives as Potential Antiplatelet Aggregation Agents via Protein Kinase G/Vasodilator-Stimulated Phosphoprotein and Phosphatidylinositol 3-Kinase/Akt Phosphorylation” (J Med Chem, 2022).
Activity calls are given as the source filed them. The rule behind the calls is not given here.

How the values were obtained:
[1] = Antiplatelet activity against ADP-induced C57BL/6J mouse platelet aggregation assessed as maximal aggregration rate at 10 uM preincubated for 10 mins followed by ADP addition relative to control; type: functional
[2] = Cytotoxicity against human HUVEC cells assessed as cell vaibility at 100 uM by MTS assay; type: toxicity, cell-based; conditions: read-out: Activity
[3] = tested on: Platelet; assay: Antiplatelet activity against ADP-induced C57BL/6J mouse platelet aggregation assessed as reduction in integrin alphaIIbbeta3 surface levels by measuring increase median fluorescence intensities at 10 uM incubated for 10 min by flow cytometry analysis; type: functional, cell-based
[4] = tested on: Platelet; assay: Antiplatelet activity against ADP-induced C57BL/6J mouse platelet aggregation assessed as reduction in P-selectin surface levels by measuring increase median fluorescence intensities at 10 uM incubated for 10 min by flow cytometry analysis; type: functional, cell-based
[5] = tested on: Platelet; assay: Inhibition of ADP-induced Akt activation in C57BL/6J mouse platelet assessed as reduction of AKT phosphorylation at Ser473 by western blot analysis; type: cell-based
[6] = tested on: Platelet; assay: Antiplatelet activity against ADP-induced C57BL/6J mouse platelet aggregation assessed as reduction on platelet aggregation at 2.5 to 10 uM preincubated for 10 mins followed by ADP addition; type: functional, cell-based; conditions: dose 2.5-10 µM, DDE = dose-dependent effect
[7] = tested on: Mus musculus; assay: Antithrombotic activity in BALB/c mouse model of carrageenan-induced thrombus formation assessed as reduced serum P-selectin level at 100 mg/kg, iv measured after 14 days by ELISA; type: functional, organism-based; conditions: time 14.0 day
[8] = tested on: Platelet; assay: Inhibition of ADP-induced Akt activation in C57BL/6J mouse platelets assessed as reduction in phosphorylation Akt level at Ser473 at 100 mg/kg, po measured after 2 weeks by western blot analysis; type: organism-based
[9] = tested on: Mus musculus; assay: Antiplatelet activity against ADP-induced C57BL/6J mouse platelet aggregation assessed as reduction in integrin alphaIIbbeta3 surface level at 100 mg/kg, po measured after 2 weeks by flow cytometry analysis; type: functional, organism-based
[10] = tested on: Mus musculus; assay: Antiplatelet activity against ADP-induced C57BL/6J mouse platelet aggregation assessed as inhibition of platelet aggregation at 100 mg/kg, po measured after 2 weeks; type: functional, organism-based
[11] = tested on: Mus musculus; assay: Antithrombotic activity in BALB/c mouse model of carrageenan-induced thrombus formation assessed as inhibition of thrombosis rate in tail at 100 mg/kg, iv measured after 14 days; type: functional, organism-based; conditions: time 14.0 day
[12] = tested on: Mus musculus; assay: Antiplatelet activity against ADP-induced C57BL/6J mouse platelet aggregation assessed as reduction in P-selectin surface levels at 100 mg/kg, po measured after 2 weeks by flow cytometry analysis; type: functional, organism-based
[13] = tested on: Lung; assay: Antithrombotic activity in BALB/c mouse model of carrageenan-induced thrombus formation assessed as reduced thrombus formation in lung at 100 mg/kg, iv measured after 14 days by H and E staining based assay; type: functional, organism-based; conditions: time 14.0 day

SMILES	%max [1]	other results
CCCCCCCOc1c(OC)ccc2cc3[n+](cc12)CCc1cc(OC)c(OC)cc1-3.[Br-]	35.3%	–
COc1cc2c(cc1OC)-c1cc3ccc(OC)c(OCc4ccccc4)c3c[n+]1CC2.[Br-]	36.9%	–
COc1cc2c(cc1OC)-c1c(C3C=CCCC3)c3ccc(OC)c(OC)c3c[n+]1CC2.[Br-] (centres undefined)	39.8%	–
COc1cc2c(cc1OC)-c1cc3ccc(OC)c(NCc4cccc(C#N)c4)c3c[n+]1CC2.[Cl-]	36.3%	–
CCOc1c(OC)ccc2cc3[n+](cc12)CCc1cc(OC)c(OC)cc1-3.[Br-]	34.6%	–
COc1cc2c(cc1OC)-c1cc3ccc(OC)c(OCC4CCC4)c3c[n+]1CC2.[Br-]	34.4%	–
COc1cc2c(cc1OC)-c1cc3ccc(OC)c(NC(=O)c4cccc(F)c4)c3c[n+]1CC2.[Cl-]	40.6%	–
COc1cc2c(cc1OC)-c1cc3ccc(OC)c(OC)c3c[n+]1CC2 [PALMITINE]	38.4%	–
COc1cc2c(cc1OC)-c1cc3ccc(OC)c(NCc4ccccc4)c3c[n+]1CC2.[Cl-]	37.3%	–
COc1cc2c(cc1OC)-c1cc3ccc(OC)c(OC(=O)c4ccccc4)c3c[n+]1CC2.[Cl-]	42.6%	–
COc1cc2c(cc1OC)-c1cc3ccc(OC)c(NCc4ccc(F)cc4)c3c[n+]1CC2.[Cl-]	34.2%	–
COc1cc2c(cc1OC)-c1cc3ccc(OC)c(OC(=O)c4ccccc4C)c3c[n+]1CC2.[Cl-]	38%	–
CCCCCNc1c(OC)ccc2cc3[n+](cc12)CCc1cc(OC)c(OC)cc1-3.[Cl-]	37.8%	–
Br.COc1cc2c(cc1OC)-c1cc3ccc(OC)c(OCc4ccc([N+](=O)[O-])cc4)c3c[n+]1CC2	37.9%	–
C=CCc1c2[n+](cc3c(OC)c(OC)ccc13)CCc1cc(OC)c(OC)cc1-2.[Br-]	36.5%	–
COc1ccc(CNc2c(OC)ccc3cc4[n+](cc23)CCc2cc(OC)c(OC)cc2-4)cc1.[Cl-]	35.6%	–
COc1cc2c(cc1OC)-c1cc3ccc(OC)c(OCC4CC4)c3c[n+]1CC2.[Br-]	30.4%	viability at 100 µM [2]: 90%; Activity [3]: Active; Activity [4]: Active; inhibition [5]: Active; Activity [6]: Dde
COc1cc2c(cc1OC)-c1cc3ccc(OC)c(OS(=O)(=O)c4ccccc4)c3c[n+]1CC2.O=[S-](=O)c1ccccc1	39.4%	–
COc1cc2c(cc1OC)-c1c(Cc3cccc(C)c3)c3ccc(OC)c(OC)c3c[n+]1CC2.[Br-]	41.4%	–
COc1cc2c(cc1OC)-c1cc3ccc(OC)c(NC(=O)C4CCCC4)c3c[n+]1CC2.[Cl-]	34.9%	–
COc1cc2c(cc1OC)-c1cc3ccc(OC)c(OCC4CCCC4)c3c[n+]1CC2.[Br-]	35.4%	–

SMILES	%max [1]	other results
COc1cc2c(cc1OC)-c1cc3ccc(OC)c(NCc4ccc(Cl)cc4)c3c[n+]1CC2.[Cl-]	31.6%	Activity [3]: Active; Activity [4]: Active; inhibition [5]: Active; Activity [6]: Dde
CCCCNc1c(OC)ccc2cc3[n+](cc12)CCc1cc(OC)c(OC)cc1-3.[Cl-]	33.4%	–
COc1cc2c(cc1OC)-c1cc3ccc(OC)c(OCc4ccc(C(C)C)cc4)c3c[n+]1CC2.[Br-]	37.5%	–
COc1cc(COc2c(OC)ccc3cc4[n+](cc23)CCc2cc(OC)c(OC)cc2-4)cc(OC)c1.[Br-]	38.4%	–
COc1ccc(C(=O)Nc2c(OC)ccc3cc4[n+](cc23)CCc2cc(OC)c(OC)cc2-4)cc1.[Cl-]	38.5%	–
COc1cc2c(cc1OC)-c1cc3ccc(OC)c(OCc4ccc(C)cc4)c3c[n+]1CC2.[Br-]	35.2%	–
COc1cc2c(cc1OC)-c1cc3ccc(OC)c(OCCC4CCCCC4)c3c[n+]1CC2.[Br-]	36.5%	–
CCCC(=O)Nc1c(OC)ccc2cc3[n+](cc12)CCc1cc(OC)c(OC)cc1-3.[Cl-]	34.3%	–
COc1ccc2cc3[n+](cc2c1OC)CCc1cc2c(cc1-3)OCO2 [BERBERINE]	27.5%	Activity [7]: Active; inhibition [8]: Active; Activity [9]: Active; Activity [10]: Active; Activity [11]: Active; inhibition [5]: Active; Activity [12]: Active; Activity [13]: Active
COc1cccc(COc2c(OC)ccc3cc4[n+](cc23)CCc2cc(OC)c(OC)cc2-4)c1.[Br-]	34.8%	viability at 100 µM [2]: 90%
COc1cc2c(cc1OC)-c1cc3ccc(OC)c(OCc4ccc(C(F)(F)F)cc4)c3c[n+]1CC2.[Br-]	37.7%	–
Br.COc1cc2c(cc1OC)-c1cc3ccc(OC)c(OCc4cccc([N+](=O)[O-])c4)c3c[n+]1CC2	33.3%	–
COc1cc2c(cc1OC)-c1cc3ccc(OC)c(OCc4cccc(C#N)c4)c3c[n+]1CC2.[Br-]	35.5%	–
COc1cc2c(cc1OC)-c1cc3ccc(OC)c(OCc4ccccc4C)c3c[n+]1CC2.[Br-]	37.8%	–
COc1cc2c(cc1OC)-c1cc3ccc(OC)c(OCc4ccc(C#N)cc4)c3c[n+]1CC2.[Br-]	42.1%	–
COc1cc2c(cc1OC)-c1cc3ccc(OC)c(OCC(C)C)c3c[n+]1CC2.[Br-]	33.4%	–
CCC(=O)Nc1c(OC)ccc2cc3[n+](cc12)CCc1cc(OC)c(OC)cc1-3.[Cl-]	34.5%	–
C/C=C/Cc1c2[n+](cc3c(OC)c(OC)ccc13)CCc1cc(OC)c(OC)cc1-2.[Br-]	40.3%	–
CCCC(=O)Oc1c(OC)ccc2cc3[n+](cc12)CCc1cc(OC)c(OC)cc1-3.[Cl-]	39.8%	–
COc1cc2c(cc1OC)-c1cc3ccc(OC)c(NC(=O)C45CC6CC(CC(C6)C4)C5)c3c[n+]1CC2.[Cl-]	34.7%	–
CCCCOc1c(OC)ccc2cc3[n+](cc12)CCc1cc(OC)c(OC)cc1-3.[Br-]	34.4%	–

SMILES	%max [1]	other results
CCC(=O)Oc1c(OC)ccc2cc3[n+](cc12)CCc1cc(OC)c(OC)cc1-3.[Cl-]	40.1%	–
COc1cc2c(cc1OC)-c1c(Cc3cc(C)cc(C)c3)c3ccc(OC)c(OC)c3c[n+]1CC2.[Br-]	39.4%	–
COC(=O)/C=C/c1ccc(Cc2c3[n+](cc4c(OC)c(OC)ccc24)CCc2cc(OC)c(OC)cc2-3)cc1.[Br-]	38.2%	–
COc1cc2c(cc1OC)-c1cc3ccc(OC)c(NCc4ccc(C)cc4)c3c[n+]1CC2.[Cl-]	33.2%	–
COc1cc2c(cc1OC)-c1cc3ccc(OC)c(NC(=O)C4CCCCC4)c3c[n+]1CC2.[Cl-]	37.7%	–
Br.COc1cc2c(cc1OC)-c1c(Cc3ccc([N+](=O)[O-])cc3)c3ccc(OC)c(OC)c3c[n+]1CC2	38.6%	–
COc1ccc(CNc2c(OC)ccc3cc4[n+](cc23)CCc2cc(OC)c(OC)cc2-4)c(OC)c1.[Cl-]	33.5%	–
COc1cc2c(cc1OC)-c1cc3ccc(OC)c(OS(=O)(=O)c4ccc([N+](=O)[O-])cc4)c3c[n+]1CC2.O=[SH](=O)c1ccccc1	37.7%	–
Br.COc1cc2c(cc1OC)-c1cc3ccc(OC)c(OCc4ccccc4[N+](=O)[O-])c3c[n+]1CC2	39.7%	–
COc1cc2c(cc1OC)-c1cc3ccc(OC)c(NC(=O)c4ccccc4)c3c[n+]1CC2.[Cl-]	35.8%	–
COc1cc2c(cc1OC)-c1c(Cc3ccccc3C#N)c3ccc(OC)c(OC)c3c[n+]1CC2.[Br-]	40.2%	–
COc1cc2c(cc1OC)-c1cc3ccc(OC)c(OCc4ccccc4C#N)c3c[n+]1CC2.[Br-]	30.5%	viability at 100 µM [2]: < 60%; Activity [3]: Active; Activity [4]: Active; inhibition [5]: Active; Activity [6]: Dde
COc1cc2c(cc1OC)-c1cc3ccc(OC)c(OCC4CCCCC4)c3c[n+]1CC2.[Br-]	33.9%	–
C=CCOc1c(OC)ccc2cc3[n+](cc12)CCc1cc(OC)c(OC)cc1-3.[Br-]	34.3%	–
COc1cc2c(cc1OC)-c1cc3ccc(OC)c(OCc4cccc(F)c4)c3c[n+]1CC2.[Br-]	35.7%	–
CCCCC(=O)Nc1c(OC)ccc2cc3[n+](cc12)CCc1cc(OC)c(OC)cc1-3.[Cl-]	37.2%	–
COc1cc2c(cc1OC)-c1cc3ccc(OC)c(OCc4cccc(Br)c4)c3c[n+]1CC2.[Br-]	39.3%	–
COc1cc2c(cc1OC)-c1c(Cc3ccc(C)cc3)c3ccc(OC)c(OC)c3c[n+]1CC2.[Br-]	38.3%	–
COc1cc2c(cc1OC)-c1cc3ccc(OC)c(NC(=O)c4ccc(F)cc4)c3c[n+]1CC2.[Cl-]	37.1%	–
